From patent publication US20050249675A1, “Mucin synthesis inhibitors” (priority 2003, published 2005)
Like-named read-outs stand apart in the source and are kept apart here.

Legend:
[1] = test system: MUC5A/C secretion in hCLCA1 expressing H292 cells; experiment: MUC5A/C secretion by ELLA in hCLCA1 expressing H292 cells; format: cell-based, human; set-up: key to ELLA: (+) = inhibition; (−) = no inhibition
H292 clone 15 cells [2] = experiment: Alamar Blue cytotoxicity; details: H292 clone 15 cells; 48 hours; average of 3 experiments
H292 clone 15 cells [3] = experiment: ELLA for MUC5AC, H292 clone 15 cells (Example 11); format: cell-based, human; details: Homo sapiens, NCI-H292; MUC5AC in conditioned media; 48 hours; average of 3 experiments
Procedure: ELLA (Enzyme-Linked Lectin Assay) was used to determine the inhibitory effect of compounds on mucus production by H292 clone 15 cells. H292 clone 15 cells, a subclone from human pulmonary mucoepidermoid carcinoma cells overexpressing hCLCA1, were grown to confluent, followed by incubation with increasing concentrations of compounds for 48 hours. Conditioned media were collected and MUC5AC (the major secretory mucin in lungs) content was determined by ELLA measurement as described below. 96 well microtiter plates were coated with a mouse monoclonal antibody against human MUC5AC (1-13M1, NeoMarkers), then incubated with test conditioned media. Bound MUC5AC was detected by horseradish peroxidase-conjugated soybean lectin that has a high affinity towards highly-glycosylated proteins such as MUC5AC. Conversion of peroxidase substrate TMB (Tetramethylbenzidine Base) was quantified by reading at 450 nm. O.D. (optical density) readings were plotted against concentrations of compounds. Linear regression was used to derive the concentration at which O.D. was reduced by 50% (IC50) when compared to vehicle-treated cells.

activated Caco2 cells [4] = details: Caco-2
NCI-H292/hCLCA1 cells = experiment: AB/PAS staining of mucous glycoconjugates in NCI-H292/hCLCA1 cells; format: cell-based, human; details: NFA 100 μM, MFA 125 or 250 μM, talniflumate 12.5, 25 or 50 μM; vs untreated cells
Procedure: For the determination of mucous glycoconjugate production, NCI-H292/ctl and NCI-H292/hCLCA1 (AAF 15) cells were cultured in 24-well plates for 3 days. Cells were then fixed with Formalin and mucous glycoconjugates were visualized by AB/PAS staining (Sigma). […] For chloride channel blockage studies, cells were cultured in the presence of niflumic acid (NFA) (Sigma) at 100 μM concentration, mefanamic acid (MFA) at 125 or 250 μM or talniflumate at 12.5, 25 or 50 μM, or media alone.
For the determination of mucous glycoconjugate production, NCI-H292/hCLCA1 cells were cultured in 24-well plates for 3 days with at concentrations of 0 to 150 μM of the talniflumate enantiomers or media alone (control). Cells were then fixed with Formalin and mucous glycoconjugates were visualized by AB/PAS staining (Sigma). […] In this assay both enantiomers were seen to inhibit muco-glycoconjugate production at concentrations>40 μM.

activated Caco2 cells [5] = experiment: PAS staining for mucin in activated Caco2 cells
[6] = test system: murine chloride channel, mCLCA1; experiment: Patch clamp chloride current, HEK293 cell expressing mCLCA1; format: cell-based; details: for Chloride Current: + ionomycin + Ca
Procedure: A HEK293 cell transfected with a plasmid expressing a murine chloride channel, mCLCA1, was patch clamped and chloride current was measured over a range of voltages (V, left column) and the results are shown in Table 3 below. Each row lists currents invoked at a particular positive voltage in the absence (−) or presence (+) of ionomycin and calcium, and in the presence of an indicated concentration of diclofenac (μM). Substantial current was invoked by the addition of 2 μM ionomycin and 2 mM calcium-compare the first two columns-indicating activation of mCLCA1 by the ionomycin/calcium treatment. For example, at 100 mV of positive voltage, the chloride current was increased from 39 nA/pF to 105 nA/pF.

With `O=C1OC(OC(=O)c2cccnc2Nc2cccc(C(F)(F)F)c2)c2ccccc21` (single isomer, unassigned; enantiomer 2) [enantiomer 2] the IC50 ([1]; NCI-H292/hCLCA1 cells, 0 through 150 μM, 48 hours, FIG. 26, read-out: IC50, inhibition of MUC5A/C secretion) was 40 µM.
With `O=C1OC(CC(=O)c2cccnc2Oc2ccc(F)cc2F)c2ccccc21` (stereo not shown) [Compound 12] the “Est. LD50 (Alamar Blue)” value (H292 clone 15 cells [2]) was 22 µM and the IC50 (H292 clone 15 cells [3]) was 1.9 µM.
For `CS(=O)(=O)Nc1ccc([N+](=O)[O-])cc1Oc1ccccc1` [Nimesulide], the “Inhibition of MUC5A/C secretion / mucin production (figure legends)” value ([1]; hCLCA1 expressing H292 cells, 48 hours) was “inhibition of MUCSA/C secretion”.
In the case of `Cc1cccc(Nc2ccccc2C(=O)O)c1C` [Mefenamate], the “Mucin production by activated Caco2 cells” value (activated Caco2 cells [4]) is reported as “partially” and the “PAS positive staining muco-glycoconjugates” value (NCI-H292/hCLCA1 cells) is reported as “significantly fewer positive staining muco-glycoconjugates”.
In the case of `COC(=O)c1cccnc1Nc1cccc(C(F)(F)F)c1` [1 (MSI 2213), Niflumic acid methyl ester], the ELLA ([1]; Table 2, mucin production) is reported as “−”.
`CC1=C(CC(=O)O)c2cc(F)ccc2/C1=C\c1ccc([S+](C)[O-])cc1` (stereo not shown) [Sulindac] was tested, and the “Mucin production by activated Caco2 cells” value (activated Caco2 cells [4]) was “ineffective”.
For `O=S(=O)(O)c1cc(N=C=S)ccc1C=Cc1ccc(N=C=S)cc1S(=O)(=O)O` [DIDS, 4,4′-diisothiocyanostilbene-2,2′-disulfonic acid], the “PAS positive staining mucin glycoconjugates” value (activated Caco2 cells [5]; activated Caco2 cells, 100 μm for NFA and 300 μm for DIDS, vs untreated cells) was “significantly fewer positive staining mucin glycoconjugates”.
For `O=C1OC(CC(=O)c2cccnc2Oc2ccccc2)c2ccccc21` (stereo not shown) [Compound 9], the “Est. LD50 (Alamar Blue)” value (H292 clone 15 cells [2]) was 43 µM and the IC50 (H292 clone 15 cells [3]) was 5 µM.
For `O=C(O)c1ccccc1CCC(=O)c1ccccc1Nc1cccc(C(F)(F)F)c1` [Compound 8], the “Est. LD50 (Alamar Blue)” value (H292 clone 15 cells [2]) was 30 µM and the IC50 (H292 clone 15 cells [3]) was 10 µM.
In the case of `O=C(CC1OC(=O)c2ccccc21)c1ccccc1Sc1ccccc1Cl` (stereo not shown) [Compound 15], the “Est. LD50 (Alamar Blue)” value (H292 clone 15 cells [2]) is reported as 15 µM and the IC50 (H292 clone 15 cells [3]) is reported as 2.5 µM.
In the case of `O=C(O)c1ccccc1CCC(=O)c1cccnc1Oc1ccccc1` [Compound 10], the “Est. LD50 (Alamar Blue)” value (H292 clone 15 cells [2]) is reported as 885 µM and the IC50 (H292 clone 15 cells [3]) is reported as 44 µM.
`O=C1OC(CC(=O)c2cccnc2Oc2cccc(Cl)c2Cl)c2ccccc21` (stereo not shown) [Compound 13] was tested, and the “Est. LD50 (Alamar Blue)” value (H292 clone 15 cells [2]) was 10 µM and the IC50 (H292 clone 15 cells [3]) was 1 µM.
`O=C1OC(CC(=O)c2cccnc2Oc2cccc(Cl)c2)c2ccccc21` (stereo not shown) [Compound 11] was tested, and the “Est. LD50 (Alamar Blue)” value (H292 clone 15 cells [2]) was 23 µM and the IC50 (H292 clone 15 cells [3]) was 2 µM.
For `COC(=O)c1ccccc1/C=C/C(=O)c1cccnc1Nc1cccc(C(F)(F)F)c1` [Compound 2], the “Est. LD50 (Alamar Blue)” value (H292 clone 15 cells [2]) was 16 µM and the IC50 (H292 clone 15 cells [3]) was 4 µM.
In the case of `Cc1c(Cl)cccc1Nc1ccccc1C(=O)CCc1ccccc1C(=O)O` [Compound 4], the “Est. LD50 (Alamar Blue)” value (H292 clone 15 cells [2]) is reported as 27 µM and the IC50 (H292 clone 15 cells [3]) is reported as 1.6 µM.
With `Cc1c(Cl)cccc1Nc1ccccc1C(=O)O` [Tolfenamate] the “Mucin production by activated Caco2 cells” value (activated Caco2 cells [5]; FIG. 2) was “inhibited”.
With `O=C(O)Cc1ccccc1Nc1c(Cl)cccc1Cl` [diclofenac] the “Inhibition of chloride channel activity” value ([6]; diclofenac 5 μM to 50 μM) was “did not inhibit chloride channel activity”, the “Chloride Current” value ([6]; diclofenac 5 μM, 0 mV) was 20 nA/pF and the “Chloride Current” value ([6]; diclofenac 5 μM, 20 mV) was 36 nA/pF. For the same compound, the “Chloride Current” value ([6]; diclofenac 5 μM, 40 mV) was 53 nA/pF, the “Chloride Current” value ([6]; diclofenac 5 μM, 60 mV) was 72 nA/pF and the “Chloride Current” value ([6]; diclofenac 5 μM, 80 mV) was 92 nA/pF. The “Chloride Current” value ([6]; diclofenac 5 μM, 100 mV) was 115 nA/pF, the “Chloride Current” value ([6]; diclofenac 20 μM, 0 mV) was 20 nA/pF and the “Chloride Current” value ([6]; diclofenac 20 μM, 20 mV) was 34 nA/pF. For the same compound, the “Chloride Current” value ([6]; diclofenac 20 μM, 40 mV) was 51 nA/pF, the “Chloride Current” value ([6]; diclofenac 20 μM, 60 mV) was 69 nA/pF and the “Chloride Current” value ([6]; diclofenac 20 μM, 80 mV) was 88 nA/pF. For the same compound, the “Chloride Current” value ([6]; diclofenac 20 μM, 100 mV) was 109 nA/pF, the “Chloride Current” value ([6]; diclofenac 50 μM, 0 mV) was 19 nA/pF and the “Chloride Current” value ([6]; diclofenac 50 μM, 20 mV) was 33 nA/pF. For the same compound, the “Chloride Current” value ([6]; diclofenac 50 μM, 40 mV) was 48 nA/pF, the “Chloride Current” value ([6]; diclofenac 50 μM, 60 mV) was 66 nA/pF and the “Chloride Current” value ([6]; diclofenac 50 μM, 80 mV) was 85 nA/pF. For the same compound, the “Chloride Current” value ([6]; diclofenac 50 μM, 100 mV) was 106 nA/pF.
For `O=C1OC(CC(=O)c2cccnc2Oc2cccc(Br)c2)c2ccccc21` (stereo not shown) [Compound 14], the “Est. LD50 (Alamar Blue)” value (H292 clone 15 cells [2]) was 16 µM and the IC50 (H292 clone 15 cells [3]) was 2.3 µM.
In the case of `Cc1ccc(Cl)c(Nc2ccccc2C(=O)O)c1Cl` [Meclofenamate], the “Mucin production by activated Caco2 cells” value (activated Caco2 cells [4]) is reported as “partially”.
For `Cc1c(Cl)cccc1Nc1ccccc1C(=O)CC1OC(=O)c2ccccc21` (stereo not shown) [Compound 3], the “Est. LD50 (Alamar Blue)” value (H292 clone 15 cells [2]) was 19 µM and the IC50 (H292 clone 15 cells [3]) was 1.2 µM.
In the case of `O=C(O)c1ccccc1Nc1cccc(C(F)(F)F)c1` [Flufenamate], the “Mucin production by activated Caco2 cells” value (activated Caco2 cells [4]) is reported as “inhibited”.
For `Cc1cccc(Nc2ccccc2C(=O)CC2OC(=O)c3ccccc32)c1C` (stereo not shown) [Compound 5], the “Est. LD50 (Alamar Blue)” value (H292 clone 15 cells [2]) was 35 µM and the IC50 (H292 clone 15 cells [3]) was 4 µM.
`Cc1cccc(Nc2ccccc2C(=O)CCc2ccccc2C(=O)O)c1C` [Compound 6] was tested, and the “Est. LD50 (Alamar Blue)” value (H292 clone 15 cells [2]) was 27 µM and the IC50 (H292 clone 15 cells [3]) was 3 µM.
With `COc1ccc2cc([C@H](C)C(=O)O)ccc2c1` [Naproxen] the “Mucin production by activated Caco2 cells” value (activated Caco2 cells [4]) was “ineffective”.
In the case of `O=C1OC(OC(=O)c2cccnc2Nc2cccc(C(F)(F)F)c2)c2ccccc21` (single isomer, unassigned; enantiomer 1) [enantiomer 1], the “IC50, inhibition of MUC5A/C secretion” value ([1]; NCI-H292/hCLCA1 cells, 0 through 150 μM, 48 hours, FIG. 26) is reported as “not inhibitory”.
With `O=C(CC1OC(=O)c2ncccc21)c1cccnc1Nc1cccc(C(F)(F)F)c1` (stereo not shown) [Compound 1] the “Est. LD50 (Alamar Blue)” value (H292 clone 15 cells [2]) was 11 µM and the IC50 (H292 clone 15 cells [3]) was 2 µM.
For `O=C(CC1OC(=O)c2ccccc21)c1ccccc1Nc1cccc(C(F)(F)F)c1` (stereo not shown) [Compound 7], the “Est. LD50 (Alamar Blue)” value (H292 clone 15 cells [2]) was 69 µM and the IC50 (H292 clone 15 cells [3]) was 24 µM.
